For one test, the system named is M. luteus. Type of test: cell-based. The conditions noted are these: duplicate experiments. An outline of the steps:
(§1)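 Broth dilution MIC following CLSI M07-A9; overnight TSB cultures diluted to 0.5×10^6 CFU in TSB and incubated with compound at 37° C for 16 hours. MIC read by visual inspection of growth.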

The test system of a further test is VRE 155. Type of test: cell-based. The conditions noted are these: duplicate experiments. An outline of the steps:
as §1

The next test relates to MRSA USA300. Type of test: cell-based, Staphylococcus aureus. The conditions noted are these: duplicate experiments. In a few lines: as §1
Another test deals with E. faecium E980. Nature of the test: BioScreen growth assay for E. faecium E980. The conditions noted are these: 5 μM. Format: cell-based. The method, then:
(§2) A BioScreen C instrument (Oy Growth Curves AB, Helsinki, Finland) was used to monitor effects of the compounds (6), (10), and (12) and the effect of compound (24) with R1-group (e), or Comparative compound B (nisin) on E. faecium growth (each compound administered at a fixed concentration 5 μM). E. faecium strains were inoculated at an initial OD660 of 0.05 into 300 μl TSB containing 1% DMSO and 1% glucose or into the same medium containing the antibiotic compounds at a final concentration of 5 μM. […]
(§3) The E. faecium strains used in these experiments are E. faecium E745 (vancomycin-ampicillin resistant hospital outbreak strain), E. faecium E980 (vancomycin-ampicillin susceptible human commensal isolate), E. Faecium E1133 (vancomycin-ampicillin resistant hospital outbreak strain), and E. faecium E1162 (vancomycin-susceptible ampicillin-resistant clinical isolate). The BioScreen growth assays for each strain was determined for the compounds (6), (10), (12) and also for compound (24) with R1-group (e) as well as nisin (Comparative compound B) and compared to non-treated strains, the results being shown in the Tables 9 to 12 below.

The next test relates to E. faecium E1133. Nature of the test: BioScreen growth assay for E. faecium E1133. The conditions noted are these: 5 μM. Format: cell-based. Here is the method:
as §2, §3

For the substance nisin [Compound B], the “MIC values M. luteus” value with M. luteus was 0.02 to 0.03 µg/mL. Also, the “MIC values VRE 155” value in the test with VRE 155 amounted to 5 µg/mL. Further, in the test with MRSA USA300, the “MIC values MRSA USA300” value was 10 µg/mL. The OD600 stood at 0.016 in the test with E. faecium E980 (time 0 h); 0.01167 with E. faecium E980 (time 4 h); 0.011 in the test on E. faecium E980 (time 8 h); 0.011 with E. faecium E980 (time 12 h); 0.01067 with E. faecium E980 (time 16 h); 0.016 in the test with E. faecium E1133 (time 0 h). The OD600 in the test on E. faecium E1133 (time 4 h) is given as 0.009667; with E. faecium E1133 (time 8 h), 0.009333; in the test on E. faecium E1133 (time 12 h), 0.009333; in the test on E. faecium E1133 (time 16 h), 0.008667.

These data come from patent US20170362283A1, “NISIN-BASED COMPOUNDS AND USE THEREOF IN THE TREATMENT OF BACTERIAL INFECTIONS” (UNIVERSITEIT UTRECHT HOLDING B.V., priority 2015, published 2017).
